Values joined by “and” are separate entries in the source; they are usually repeats but may differ in a detail not shown here. Identical values can stand only once. Like-named read-outs stand apart in the source and are kept apart here.
Assays:
[1] = Pharmacokinetics after IV bolus; assay type: in vivo; settings: rat, plasma; rats; IV bolus 30 mg/kg; N = 3
Procedure: (§6) Nonclinical pharmacokinetic (PK) parameters of lead CDK4/6/9 inhibitors were determined in an intravenous (IV) and oral study (p.o.) conducted in rats. Lead compounds were each administered as a single oral dose at 100 mg/kg or by IV bolus via the caudal vein at the dose of 30 mg/kg. Blood samples were collected at 0.25, 0.5, 1, 2, 4, 8, 12, and 24 hours post i.v. administration, and at 1, 2, 4, 8, 24 and 48 hours post oral administration. Plasma was processed for drug concentration analysis using a validated LCMS/MS method, and PK parameters were calculated by using WinNonlin.

[2] = Pharmacokinetics after oral administration; assay type: in vivo; settings: rat, plasma, rats
Procedure: as §6

[3] = tested on: all cell lines tested; assay: 2D cell proliferation assay, geometric mean over the cell line panel; assay type: cell-based; settings: Table 5 lower part; geometric mean over the 8-line panel; read-out: Geomean abs. IC50 value
Procedure: (§1) Viability of the cells was analyzed by using the CellTiter-Blue® Cell Viability Assay (Promega), and was performed according to manufacturer's instructions. Briefly, cells were harvested from exponential phase cultures (Chapter 6.6), counted and plated in 96-well flat-bottom microtiter plates at a cell density of 4,000-60,000 cells/well in a volume of 140 μl per well. After a 24 hours recovery period, 10 μL cell culture medium (six control wells/plate) or culture medium with test compound were added (Chapter 6.2). The compounds were applied at five concentrations in full-log increments up to 100 μM in duplicate. Cultures were incubated at 37° C. and 5% CO2 in a humidified atmosphere for another three days. After three days of treatment, 20 μl/well CellTiter-Blue® reagent was added. Following incubation with CellTiter-Blue® reagent for up to four hours, fluorescence (FU) was measured by using the Enspire Multimode Plate Reader (excitation λ=570 nm, emission λ=600 nm). For calculations, the mean values of duplicate/sextuplicate (untreated control) data were used.
(§2) IC values are reported as relative IC50 values and absolute IC50 and IC70 values. […] The absolute IC70 value gives the concentration of the test compound that achieves T/C=30%. The relative IC50 value is the concentration of test compound that gives a response halfway between the top and bottom plateau of the sigmoidal concentration-response curve (inflection point of the curve). Calculation was done by 4parameter non-linear curve fit (Oncotest Data Warehouse Software).
(§3) If an IC50 or IC70 value could not be determined within the examined dose range (because a compound was either too active or lacked activity), the lowest or highest concentration studied was used for calculation of the geometric mean value.
The overall potency of a compound was determined by the geometric mean IC50/IC70 values of all individual IC50/IC70 values. In the heatmap representation of IC50 and IC70 values, the distribution of the IC50 or IC70 values obtained for a test compound in the individual cell lines is given in relation to the geometric mean IC50 or IC70 value, obtained over all PDX models tested. The individual IC values range from 1/32-fold geometric mean IC (corresponding to very potent compound activity or high tumor sensitivity) to 32-fold geometric mean IC (corresponding to lack of compound activity or tumor resistance). The heatmap presentation, therefore, represents an antiproliferative “fingerprint” profile of a test compound.

[4] = target: T1, CDK2-CYCLINE (Homo sapiens, UniProt P24941); assay: CDK inhibition assay (microfluidic LabChip, IC50 format); assay type: biochemical; settings: Table 3; purified enantiomers; read-out: CDK2-E (E1/E2)
T1 construct: purchased Millipore

[5] = tested on: LXFA A549; assay: 2D cell proliferation assay (CellTiter-Blue); assay type: cell-based; settings: Homo sapiens, 72 h, three days of treatment, read-out: abs. IC50
Procedure: as §1
(§4) An assay was considered fully evaluable if the following quality control criteria were fulfilled: • control/background ratio>3.0-Z′-factor calculated within the assay plate>0.5 [7]—coefficient of variation in the growth control wells <30%
(§5) Drug effects were expressed in terms of the percentage of the fluorescence signal, obtained by comparison of the mean signal in the treated wells with the mean signal of the untreated controls (expressed by the test-versus-control value, T/C-value [%]):
as §2, §3

[6] = tested on: MAXFLB MCF7 (ER+); assay: 2D cell proliferation assay (CellTiter-Blue); assay type: cell-based; settings: Homo sapiens, 72 h, three days of treatment, read-out: abs. IC50
Procedure: as §1, §4, §5, §2, §3

[7] = tested on: LEXFAM MV4-11; assay: 2D cell proliferation assay (CellTiter-Blue); assay type: cell-based; settings: Homo sapiens, 72 h, three days of treatment, read-out: abs. IC50
Procedure: as §1, §4, §5, §2, §3

[8] = tested on: MEXF WM-266-4; assay: 2D cell proliferation assay (CellTiter-Blue); assay type: cell-based; settings: Homo sapiens, 72 h, three days of treatment, read-out: abs. IC50
Procedure: as §1, §4, §5, §2, §3

[9] = tested on: MAXFTN ZR-75-1 (ER+); assay: 2D cell proliferation assay (CellTiter-Blue); assay type: cell-based; settings: Homo sapiens, 72 h, three days of treatment, read-out: abs. IC50
Procedure: as §1, §4, §5, §2, §3

[10] = tested on: LXFL NCl-H1299; assay: 2D cell proliferation assay (CellTiter-Blue); assay type: cell-based; settings: 72 h, three days of treatment, read-out: abs. IC50
Procedure: as §1, §4, §5, §2, §3

[11] = tested on: MAXFTN MDA-MB-231 (ER−); assay: 2D cell proliferation assay (CellTiter-Blue); assay type: cell-based; settings: Homo sapiens, 72 h, three days of treatment, read-out: abs. IC50
Procedure: as §1, §4, §5, §2, §3

[12] = target: T2, CDK2-CYCLINA (Homo sapiens, UniProt P24941); assay: CDK inhibition assay (microfluidic LabChip, IC50 format); assay type: biochemical
T2 construct: purchased Millipore

[13] = target: T3, CDK6-CYCLIND3 (Homo sapiens, UniProt Q00534); assay: as above; assay type: biochemical
T3 construct: purchased Carna

[14] = target: CDK4-CYCLIND1 (Homo sapiens, UniProt P11802); assay: as above
[15] = target: T4, CDK9-CYCLINT1 (Homo sapiens, UniProt P50750); assay: as above; assay type: biochemical
T4 construct: purchased Carna

[16] = tested on: LEXFAL MOLT-4; assay: 2D cell proliferation assay (CellTiter-Blue); assay type: cell-based; settings: Homo sapiens, 72 h, three days of treatment, read-out: abs. IC50
Procedure: as §1, §4, §5, §2, §3

[17] = target: CDK7 CyclinH (Homo sapiens, UniProt P50613); assay: CDK inhibition assay (microfluidic LabChip, IC50 format); assay type: biochemical; settings: Table 4a
[18] = oral administration 100 mg/kg, N = 3
[19] = Table 3, purified enantiomers, read-out: CDK2-A (E1/E2)
[20] = Table 3, purified enantiomers, read-out: CDK6 (E1/E2)
[21] = CDK4 (E1/E2), Table 3, purified enantiomers
[22] = Table 3, purified enantiomers, read-out: CDK9-T (E1/E2)

T4 sequence (P50750 whole entry): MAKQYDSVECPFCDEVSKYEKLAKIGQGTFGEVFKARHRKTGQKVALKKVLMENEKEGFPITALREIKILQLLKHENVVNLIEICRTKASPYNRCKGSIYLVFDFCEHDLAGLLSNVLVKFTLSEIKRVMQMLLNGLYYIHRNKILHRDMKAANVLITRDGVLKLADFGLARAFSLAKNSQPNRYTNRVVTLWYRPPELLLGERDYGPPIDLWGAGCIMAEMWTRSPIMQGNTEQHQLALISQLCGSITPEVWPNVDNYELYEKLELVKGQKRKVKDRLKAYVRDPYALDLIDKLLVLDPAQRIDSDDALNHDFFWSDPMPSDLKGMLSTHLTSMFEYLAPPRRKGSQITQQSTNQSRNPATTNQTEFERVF
T4 sequence (O60563 whole entry partner): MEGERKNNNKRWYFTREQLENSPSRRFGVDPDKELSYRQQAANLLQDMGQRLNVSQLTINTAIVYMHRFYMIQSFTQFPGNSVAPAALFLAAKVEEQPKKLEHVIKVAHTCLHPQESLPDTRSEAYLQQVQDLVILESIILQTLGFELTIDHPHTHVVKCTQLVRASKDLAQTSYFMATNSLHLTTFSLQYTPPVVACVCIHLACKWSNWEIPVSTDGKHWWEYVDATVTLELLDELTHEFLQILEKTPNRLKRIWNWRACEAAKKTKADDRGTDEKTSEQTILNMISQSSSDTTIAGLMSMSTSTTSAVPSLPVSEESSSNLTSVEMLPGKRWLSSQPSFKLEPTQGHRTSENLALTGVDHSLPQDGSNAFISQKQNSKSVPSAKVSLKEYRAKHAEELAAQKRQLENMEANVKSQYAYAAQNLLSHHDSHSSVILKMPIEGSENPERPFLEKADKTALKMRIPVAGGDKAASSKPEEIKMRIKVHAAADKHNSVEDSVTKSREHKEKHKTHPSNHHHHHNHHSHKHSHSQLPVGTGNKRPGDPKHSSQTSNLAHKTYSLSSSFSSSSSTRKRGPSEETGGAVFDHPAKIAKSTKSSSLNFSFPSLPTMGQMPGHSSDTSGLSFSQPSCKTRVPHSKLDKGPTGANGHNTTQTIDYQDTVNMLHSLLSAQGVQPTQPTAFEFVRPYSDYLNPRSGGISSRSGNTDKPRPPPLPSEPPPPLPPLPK
T3 sequence (Q00534 whole entry): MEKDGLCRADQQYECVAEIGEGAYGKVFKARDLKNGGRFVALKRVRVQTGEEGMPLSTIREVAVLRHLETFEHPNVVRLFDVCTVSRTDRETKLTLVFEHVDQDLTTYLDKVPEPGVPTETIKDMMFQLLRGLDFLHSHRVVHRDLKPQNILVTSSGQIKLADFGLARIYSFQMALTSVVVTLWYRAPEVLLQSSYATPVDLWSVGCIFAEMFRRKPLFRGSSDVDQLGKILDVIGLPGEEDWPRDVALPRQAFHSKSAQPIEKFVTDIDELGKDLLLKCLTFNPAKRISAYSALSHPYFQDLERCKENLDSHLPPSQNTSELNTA
T3 sequence (P30281 whole entry partner): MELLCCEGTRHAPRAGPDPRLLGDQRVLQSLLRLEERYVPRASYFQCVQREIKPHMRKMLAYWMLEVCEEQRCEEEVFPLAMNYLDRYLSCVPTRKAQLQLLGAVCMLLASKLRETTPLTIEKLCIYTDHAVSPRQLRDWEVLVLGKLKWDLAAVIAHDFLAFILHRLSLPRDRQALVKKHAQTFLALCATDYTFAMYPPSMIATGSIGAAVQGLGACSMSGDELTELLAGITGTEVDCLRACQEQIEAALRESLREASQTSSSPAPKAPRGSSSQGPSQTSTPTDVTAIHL
Sequence of CDK4-CYCLIND1 (P11802 whole entry): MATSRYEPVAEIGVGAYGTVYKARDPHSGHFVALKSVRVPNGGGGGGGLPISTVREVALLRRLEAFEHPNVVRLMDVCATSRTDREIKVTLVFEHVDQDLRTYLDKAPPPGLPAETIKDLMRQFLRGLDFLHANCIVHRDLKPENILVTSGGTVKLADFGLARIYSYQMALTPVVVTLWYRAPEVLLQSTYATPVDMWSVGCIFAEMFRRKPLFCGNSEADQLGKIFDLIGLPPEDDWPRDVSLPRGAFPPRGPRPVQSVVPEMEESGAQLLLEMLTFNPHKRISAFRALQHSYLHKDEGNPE
Sequence of CDK4-CYCLIND1 (P24385 whole entry partner): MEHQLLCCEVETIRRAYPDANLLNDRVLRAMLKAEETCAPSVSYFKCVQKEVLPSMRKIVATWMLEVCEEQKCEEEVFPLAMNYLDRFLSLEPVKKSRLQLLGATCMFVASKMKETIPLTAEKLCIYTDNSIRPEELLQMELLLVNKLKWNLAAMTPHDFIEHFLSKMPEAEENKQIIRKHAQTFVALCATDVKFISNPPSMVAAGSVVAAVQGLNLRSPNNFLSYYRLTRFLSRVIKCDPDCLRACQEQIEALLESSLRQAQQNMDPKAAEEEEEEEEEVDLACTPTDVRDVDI
Sequence of CDK7 CyclinH (P50613 whole entry): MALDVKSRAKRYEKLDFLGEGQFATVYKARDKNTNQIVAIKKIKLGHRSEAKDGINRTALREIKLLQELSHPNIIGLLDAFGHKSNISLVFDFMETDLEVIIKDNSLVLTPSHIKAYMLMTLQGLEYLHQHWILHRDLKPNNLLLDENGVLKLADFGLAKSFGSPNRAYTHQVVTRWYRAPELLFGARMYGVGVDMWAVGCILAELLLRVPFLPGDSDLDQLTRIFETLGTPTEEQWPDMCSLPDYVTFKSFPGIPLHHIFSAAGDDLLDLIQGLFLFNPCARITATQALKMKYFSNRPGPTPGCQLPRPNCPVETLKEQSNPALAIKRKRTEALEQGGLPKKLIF
Sequence of CDK7 CyclinH (P51946 whole entry partner): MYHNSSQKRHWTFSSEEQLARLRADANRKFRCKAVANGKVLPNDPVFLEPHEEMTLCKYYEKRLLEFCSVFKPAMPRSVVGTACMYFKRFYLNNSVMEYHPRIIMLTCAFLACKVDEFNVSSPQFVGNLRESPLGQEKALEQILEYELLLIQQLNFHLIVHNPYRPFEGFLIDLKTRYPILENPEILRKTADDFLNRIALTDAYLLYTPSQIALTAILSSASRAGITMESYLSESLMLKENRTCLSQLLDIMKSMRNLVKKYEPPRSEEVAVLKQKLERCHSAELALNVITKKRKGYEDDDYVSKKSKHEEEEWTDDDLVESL
Sequence of CDK7 CyclinH (P51948 whole entry partner): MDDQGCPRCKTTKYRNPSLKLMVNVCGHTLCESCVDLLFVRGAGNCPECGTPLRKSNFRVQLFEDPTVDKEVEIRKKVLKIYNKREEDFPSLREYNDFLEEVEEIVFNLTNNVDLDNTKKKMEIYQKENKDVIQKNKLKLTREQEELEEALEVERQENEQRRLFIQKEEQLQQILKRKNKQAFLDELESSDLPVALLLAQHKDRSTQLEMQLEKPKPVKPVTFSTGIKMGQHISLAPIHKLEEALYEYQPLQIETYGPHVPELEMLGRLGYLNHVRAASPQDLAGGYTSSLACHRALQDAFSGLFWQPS

SMILES | IC50 [4] | IC50 [5] | IC50 [6] | IC50 [7] | IC50 [10] | IC50 [12, 19] | IC50 [13, 20] | IC50 [14, 21] | IC50 [15, 22] | IC50 [3] | IC50 [8] | IC50 [9] | other results
CC(C)N1CCN(c2ccc(Nc3ncc4c(n3)N(C3CCCC3)C(=O)[C@@]3(CCNC3=O)C4)cc2F)CC1 [Example D53, (R)-8-cyclopentyl-2-((3-fluoro-4-(4-isopropylpiperazin-1-yl)phenyl)amino) -5,8-dihydro-7H-spiro[pyrido[2,3-d]pyrimidine-6,3′-pyrrolidine]-2′,7-dione] | 12100 nM |  |  |  |  | 9670 nM | 384 nM | 178 nM |  |  |  |  | 
O=C1NCC[C@@]12Cc1cnc(Nc3ccc(N4CCNCC4)c(F)c3)nc1N(C1CCCC1)C2=O [Example D50, (S)-8-cyclopentyl-2-((3-fluoro-4-(piperazin-1-yl)phenyl)amino)-5,8-dihydro-7H-spiro[pyrido[2,3-d]pyrimidine-6,3′-pyrrolidine]-2′,7-dione] | 62.4 nM | 338 nM | 80 nM | ≤ 10 nM | 187 nM | 29.1 nM | 1.29 nM | 0.78 nM | 4.37 nM | 173 nM | 46 nM | 23300 nM | IC50 [11]: 150 nM; IC50 [16]: 101 nM
O=C1NCC[C@]12Cc1cnc(Nc3ccc(N4CCNCC4)c(F)c3)nc1N(C1CCCC1)C2=O [Example D49, (R)-8-cyclopentyl-2-((3-fluoro-4-(piperazin-1-yl)phenyl)amino)-5,8-dihydro-7H-spiro[pyrido[2,3-d]pyrimidine-6,3′-pyrrolidine]-2′,7-dione] | 5660 nM |  |  |  |  | 3410 nM | 360 nM | 136 nM | 1240 nM |  |  |  | 
CN(C)[C@@H]1CCN(c2ccc(Nc3ncc4c(n3)N(C3CCCC3)C(=O)[C@]3(CCNC3=O)C4)cc2F)C1 [Example D176, (S)-8-cyclopentyl-2-((4-((R)-3-(dimethylamino)pyrrolidin-1-yl)-3-fluorophenyl)amino)-5,8-dihydro-7H-spiro[pyrido[2,3-d]pyrimidine-6,3′-pyrrolidine]-2′,7-dione] |  | 440 nM | 62 nM | 28 nM | 229 nM |  |  |  |  | 179 nM | 548 nM | 648 nM | IC50 [11]: 172 nM; IC50 [16]: 97 nM; IC50 ([12]; Table 4a, read-out: CDK2 CyclinA IC50): 33.3 nM; IC50 ([13]; Table 4a, read-out: CDK6 CyclinD3 IC50): 2.07 nM; IC50 ([14]; CDK4 CyclinD1 IC50, Table 4a, a second value in parentheses for some compounds): 1.12 nM and 0.64 nM; IC50 ([15]; Table 4a, read-out: CDK9 CyclinT1 IC50): 2.73 nM; IC50 [17]: 126 nM

The next lines start with results.

IC50 [4] | IC50 [5] | IC50 [6] | IC50 [7] | IC50 [10] | IC50 [12, 19] | IC50 [13, 20] | IC50 [14, 21] | IC50 [15, 22] | SMILES | IC50 [3] | IC50 [8] | IC50 [9] | other results
101 nM | 257 nM | 122 nM | ≤ 10 nM | 151 nM | 53.1 nM | 1.94 nM | 0.904 nM | 5.75 nM | CN1CCN(c2ccc(Nc3ncc4c(n3)N(C3CCCC3)C(=O)[C@]3(CCNC3=O)C4)cc2F)CC1 [Example D52, (S)-8-cyclopentyl-2-((3-fluoro-4-(4-methylpiperazin-1-yl)phenyl)amino)-5,8-dihydro-7H-spiro[pyrido[2,3-d]pyrimidine-6,3′-pyrrolidine]-2′,7-dione] | 184 nM | 509 nM | 925 nM | Cmax [1]: 6360 ng/mL; clearance [1]: 19.3 mL/min/kg; half-life [1]: 4.45 h; bioavailability ([2]; oral 100 mg/kg versus IV 30 mg/kg, read-out: BIOAVAILABILITY F): 43.9%; AUC [2, 18]: 37700 ng·h/mL; Cmax [2, 18]: 4350 ng/mL; MRT [2, 18]: 5.48 h; half-life [2, 18]: 7.1 h; IC50 [11]: 318 nM
106 nM | 1400 nM | 188 nM | 10 nM | 212 nM | 45.6 nM | 1.65 nM | 0.822 nM |  | CC(C)N1CCN(c2ccc(Nc3ncc4c(n3)N(C3CCCC3)C(=O)[C@]3(CCNC3=O)C4)cc2F)CC1 [Example D54, (S)-8-cyclopentyl-2-((3-fluoro-4-(4-isopropylpiperazin-1-yl)phenyl)amino)-5,8-dihydro-7H-spiro[pyrido[2,3-d]pyrimidine-6,3′-pyrrolidine]-2′,7-dione] | 352 nM | 331 nM | 10300 nM | 
11500 nM |  |  |  |  | 5940 nM | 444 nM | 211 nM | 1150 nM | CN1CCN(c2ccc(Nc3ncc4c(n3)N(C3CCCC3)C(=O)[C@@]3(CCNC3=O)C4)cc2F)CC1 [Example D51, (R)-8-cyclopentyl-2-((3-fluoro-4-(4-methylpiperazin-1-yl)phenyl)amino)-5,8-dihydro-7H-spiro[pyrido[2,3-d]pyrimidine-6,3′-pyrrolidine]-2′,7-dione] |  |  |  | 
4240 nM |  |  |  |  | 3120 nM | 3.26 nM | 2.96 nM | 198 nM | O=C1NCC[C@@]12Cc1cnc(Nc3ccc(N4CCNCC4)cn3)nc1N(C1CCCC1)C2=O [Example D58, (S)-8-cyclopentyl-2-((5-(piperazin-1-yl)pyridin-2-yl)amino)-5,8-dihydro-7H-spiro[pyrido[2,3-d]pyrimidine-6,3′-pyrrolidine]-2′,7-dione] |  |  |  | 
> 100000 nM |  |  |  |  | > 100000 nM | 2010 nM | 1050 nM | > 100000 nM | O=C1NCC[C@]12Cc1cnc(Nc3ccc(N4CCNCC4)cn3)nc1N(C1CCCC1)C2=O [Example D57, (R)-8-cyclopentyl-2-((5-(piperazin-1-yl)pyridin-2-yl)amino)-5,8-dihydro-7H-spiro[pyrido[2,3-d]pyrimidine-6,3′-pyrrolidine]-2′,7-dione] |  |  |  | 
104 nM |  |  |  |  | 48.2 nM | 2.67 nM | 1.4 nM | 11.1 nM | O=C1NCC[C@@]12Cc1cnc(Nc3ccc(N4CCNCC4)cc3)nc1N(C1CCCC1)C2=O [Example D56, (S)-8-cyclopentyl-2-((4-(piperazin-1-yl)phenyl)amino)-5,8-dihydro-7H-spiro[pyrido[2,3-d]pyrimidine-6,3′-pyrrolidine]-2′,7-dione] |  |  |  | 
8880 nM |  |  |  |  | 6000 nM | 519 nM | 251 nM | 1800 nM | O=C1NCC[C@]12Cc1cnc(Nc3ccc(N4CCNCC4)cc3)nc1N(C1CCCC1)C2=O [Example D55, (R)-8-cyclopentyl-2-((4-(piperazin-1-yl)phenyl)amino)-5,8-dihydro-7H-spiro[pyrido[2,3-d]pyrimidine-6,3′-pyrrolidine]-2′,7-dione] |  |  |  | 
